Experimental data published in ChEMBL document CHEMBL4715821, “Discovery of 4-ethoxy-7H-pyrrolo[2,3-d]pyrimidin-2-amines as potent, selective and orally bioavailable LRRK2 inhibitors” (Bioorg Med Chem Lett, 2018).

Key:
[1] = biological target: cAMP-dependent protein kinase catalytic subunit gamma (Homo sapiens) (UniProt P22612); assay: Inhibition of PKAcg (unknown origin) assessed as residual activity at 1 uM by Kinomescan method relative to control
Homo sapiens = species: Homo sapiens; assay: Inhibition of wild-type human full length CDK9 (M1 to F372 residues)/cyclin T1 expressed in bacterial expression system assessed as residual activity at 1 uM by Kinomescan method relative to control
[2] = biological target: Leucine-rich repeat serine/threonine-protein kinase 2 (Homo sapiens, UniProt Q5S007); assay: Inhibition of wild-type human partial length LRRK2 (H970 to E2527 residues) expressed in mammalian expression system assessed as residual activity at 1 uM by Kinomescan method relative to control
[3] = biological target: Maternal embryonic leucine zipper kinase (Homo sapiens) (UniProt Q14680); assay: Inhibition of wild-type human full length MELK (M1 to V651 residues) expressed in bacterial expression system assessed as residual activity at 1 uM by Kinomescan method relative to control
[4] = Metabolic stability in human liver microsomes assessed as intrinsic clearance; format: ADME, Microsome
[5] = biological target: G protein-coupled receptor kinase 3 (Homo sapiens) (UniProt P35626); assay: Inhibition of wild-type human full length GRK3 (M1 to L688 residues) expressed in mammalian expression system assessed as residual activity at 1 uM by Kinomescan method relative to control
[6] = biological target: Serine/threonine-protein kinase Sgk1 (Homo sapiens) (UniProt O00141); assay: Inhibition of wild-type human partial length SGK1 (I60 to L431 residues) expressed in mammalian expression system assessed as residual activity at 1 uM by Kinomescan method relative to control
[7] = biological target: Serine/threonine-protein kinase PAK 6 (Homo sapiens) (UniProt Q9NQU5); assay: Inhibition of wild-type human partial length PAK6 (N298 to C681 residues) expressed in bacterial expression system assessed as residual activity at 1 uM by Kinomescan method relative to control
[8] = biological target: Ephrin type-A receptor 8 (Homo sapiens) (UniProt P29322); assay: Inhibition of human wild type partial length EPHA8 (Q608 to C920 residues) expressed in bacterial expression system assessed as residual activity at 1 uM by Kinomescan method relative to control
[9] = biological target: NUAK family SNF1-like kinase 2 (Homo sapiens) (UniProt Q9H093); assay: Inhibition of wild-type human partial length SNARK (P22 to A333 residues) expressed in mammalian expression system assessed as residual activity at 1 uM by Kinomescan method relative to control
[10] = In vivo inhibition of LRRK2 in Han-Wistar rat assessed as reduction in Ser935 phosphorylation in kidney at 10 to 100 mg/kg, po by Western blot analysis; format: functional; set-up: scale not given: the % may be the effect or the level left; conditions: dose 10-100 mg/kg
[11] = biological target: Ephrin type-B receptor 2 (Homo sapiens) (UniProt P29323); assay: Inhibition of wild-type human partial length EPHB2 (I597 to L902 residues) expressed in bacterial expression system assessed as residual activity at 1 uM by Kinomescan method relative to control
Ephrin type-B receptor 2 (Homo sapiens), sequence (P29323 whole entry, the tested form may be a part): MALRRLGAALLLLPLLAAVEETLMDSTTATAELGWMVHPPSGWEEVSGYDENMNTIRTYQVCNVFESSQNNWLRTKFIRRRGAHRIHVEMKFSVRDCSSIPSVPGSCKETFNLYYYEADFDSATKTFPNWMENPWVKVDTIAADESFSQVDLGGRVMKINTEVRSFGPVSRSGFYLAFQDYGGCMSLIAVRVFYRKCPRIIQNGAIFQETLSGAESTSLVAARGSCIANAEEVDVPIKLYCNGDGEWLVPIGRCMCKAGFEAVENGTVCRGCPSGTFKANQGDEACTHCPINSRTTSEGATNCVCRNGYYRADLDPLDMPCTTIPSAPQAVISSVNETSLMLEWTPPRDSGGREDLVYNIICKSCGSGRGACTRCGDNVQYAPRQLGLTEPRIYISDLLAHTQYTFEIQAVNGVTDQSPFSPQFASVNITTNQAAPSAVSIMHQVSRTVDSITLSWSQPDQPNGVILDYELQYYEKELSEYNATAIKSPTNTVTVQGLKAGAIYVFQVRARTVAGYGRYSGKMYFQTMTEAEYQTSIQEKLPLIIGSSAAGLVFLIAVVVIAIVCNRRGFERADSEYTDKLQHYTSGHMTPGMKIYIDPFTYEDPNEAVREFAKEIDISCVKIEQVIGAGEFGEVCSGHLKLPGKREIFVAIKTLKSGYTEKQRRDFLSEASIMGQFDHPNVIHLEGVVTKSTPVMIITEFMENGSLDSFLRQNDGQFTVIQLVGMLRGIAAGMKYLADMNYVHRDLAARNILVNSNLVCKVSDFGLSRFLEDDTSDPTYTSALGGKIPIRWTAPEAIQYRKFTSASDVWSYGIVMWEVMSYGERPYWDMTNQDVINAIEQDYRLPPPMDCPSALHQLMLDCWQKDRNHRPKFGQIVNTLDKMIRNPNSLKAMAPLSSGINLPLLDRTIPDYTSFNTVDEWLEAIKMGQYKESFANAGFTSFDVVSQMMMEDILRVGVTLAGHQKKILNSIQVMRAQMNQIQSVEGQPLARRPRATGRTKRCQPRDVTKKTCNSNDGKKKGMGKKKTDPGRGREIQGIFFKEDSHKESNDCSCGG

[12] = biological target: Tyrosine-protein kinase Lyn (Homo sapiens) (UniProt P07948); assay: Inhibition of wild-type human partial length LYN (C219 to Q511 residues) expressed in bacterial expression system assessed as residual activity at 1 uM by Kinomescan method relative to control
[13] = biological target: Mitogen-activated protein kinase 1 (Homo sapiens) (UniProt P28482); assay: Inhibition of wild-type human full length ERK2 (M1 to S360 residues) expressed in bacterial expression system assessed as residual activity at 1 uM by Kinomescan method relative to control
[14] = biological target: Dual specificity mitogen-activated protein kinase kinase 6 (Homo sapiens) (UniProt P52564); assay: Inhibition of MKK6 (unknown origin) assessed as residual activity at 1 uM by Kinomescan method relative to control
Dual specificity mitogen-activated protein kinase kinase 6 (Homo sapiens), sequence (P52564 whole entry): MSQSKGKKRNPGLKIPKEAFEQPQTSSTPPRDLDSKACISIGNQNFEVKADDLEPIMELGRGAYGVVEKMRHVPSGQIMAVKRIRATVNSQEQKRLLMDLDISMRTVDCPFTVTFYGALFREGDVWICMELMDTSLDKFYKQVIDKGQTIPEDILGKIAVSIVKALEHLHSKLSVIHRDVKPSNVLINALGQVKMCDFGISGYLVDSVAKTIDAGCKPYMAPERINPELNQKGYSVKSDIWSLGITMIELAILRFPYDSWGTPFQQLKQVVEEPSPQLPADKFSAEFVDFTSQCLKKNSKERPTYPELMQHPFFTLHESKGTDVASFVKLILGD

[15] = biological target: MAP kinase-activated protein kinase 3 (Homo sapiens) (UniProt Q16644); assay: Inhibition of human MAPKAPK3 assessed as residual activity at 1 uM by Kinomescan method relative to control
[16] = biological target: Protein kinase C iota type (Homo sapiens) (UniProt P41743); assay: Inhibition of PKCiota (unknown origin) assessed as residual activity at 1 uM by Kinomescan method relative to control
[17] = biological target: Serine/threonine-protein kinase D2 (Homo sapiens) (UniProt Q9BZL6); assay: Inhibition of wild-type human partial length PRKD2 (A519 to E838 residues) expressed in bacterial expression system assessed as residual activity at 1 uM by Kinomescan method relative to control
Serine/threonine-protein kinase D2 (Homo sapiens), sequence (Q9BZL6 whole entry, the tested form may be a part): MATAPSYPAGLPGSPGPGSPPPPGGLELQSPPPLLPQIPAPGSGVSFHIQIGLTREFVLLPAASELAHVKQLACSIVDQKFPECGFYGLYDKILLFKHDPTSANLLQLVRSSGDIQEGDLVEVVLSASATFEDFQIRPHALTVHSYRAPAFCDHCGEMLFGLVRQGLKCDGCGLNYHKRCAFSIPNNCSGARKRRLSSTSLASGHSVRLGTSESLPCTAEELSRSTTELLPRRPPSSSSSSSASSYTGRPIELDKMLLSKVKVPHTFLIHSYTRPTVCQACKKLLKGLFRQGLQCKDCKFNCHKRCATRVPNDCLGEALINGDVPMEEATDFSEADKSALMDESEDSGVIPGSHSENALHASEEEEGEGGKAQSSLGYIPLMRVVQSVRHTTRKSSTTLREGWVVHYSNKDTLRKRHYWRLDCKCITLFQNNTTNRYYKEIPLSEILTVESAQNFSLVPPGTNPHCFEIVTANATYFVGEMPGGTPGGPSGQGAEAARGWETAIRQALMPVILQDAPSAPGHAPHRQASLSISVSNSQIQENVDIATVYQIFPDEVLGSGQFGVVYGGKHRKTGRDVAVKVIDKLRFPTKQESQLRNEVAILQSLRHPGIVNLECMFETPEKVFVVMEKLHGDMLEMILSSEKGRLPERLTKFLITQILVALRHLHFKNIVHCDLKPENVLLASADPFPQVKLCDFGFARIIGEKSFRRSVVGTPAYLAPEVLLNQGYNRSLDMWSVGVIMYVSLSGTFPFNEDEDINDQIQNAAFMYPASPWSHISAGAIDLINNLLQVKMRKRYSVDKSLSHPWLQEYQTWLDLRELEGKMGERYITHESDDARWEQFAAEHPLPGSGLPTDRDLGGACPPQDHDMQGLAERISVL

[18] = In vivo inhibition of LRRK2 in Han-Wistar rat assessed as reduction in Ser935 phosphorylation in brain at 30 mg/kg, po by Western blot analysis; format: functional; set-up: scale not given: the % may be the effect or the level left
[19] = biological target: NT-3 growth factor receptor (Homo sapiens) (UniProt Q16288); assay: Inhibition of wild-type human partial length TRKC (Q531 to G825 residues) expressed in mammalian expression system assessed as residual activity at 1 uM by Kinomescan method relative to control
NT-3 growth factor receptor (Homo sapiens), sequence (Q16288 32-839 limits assumed): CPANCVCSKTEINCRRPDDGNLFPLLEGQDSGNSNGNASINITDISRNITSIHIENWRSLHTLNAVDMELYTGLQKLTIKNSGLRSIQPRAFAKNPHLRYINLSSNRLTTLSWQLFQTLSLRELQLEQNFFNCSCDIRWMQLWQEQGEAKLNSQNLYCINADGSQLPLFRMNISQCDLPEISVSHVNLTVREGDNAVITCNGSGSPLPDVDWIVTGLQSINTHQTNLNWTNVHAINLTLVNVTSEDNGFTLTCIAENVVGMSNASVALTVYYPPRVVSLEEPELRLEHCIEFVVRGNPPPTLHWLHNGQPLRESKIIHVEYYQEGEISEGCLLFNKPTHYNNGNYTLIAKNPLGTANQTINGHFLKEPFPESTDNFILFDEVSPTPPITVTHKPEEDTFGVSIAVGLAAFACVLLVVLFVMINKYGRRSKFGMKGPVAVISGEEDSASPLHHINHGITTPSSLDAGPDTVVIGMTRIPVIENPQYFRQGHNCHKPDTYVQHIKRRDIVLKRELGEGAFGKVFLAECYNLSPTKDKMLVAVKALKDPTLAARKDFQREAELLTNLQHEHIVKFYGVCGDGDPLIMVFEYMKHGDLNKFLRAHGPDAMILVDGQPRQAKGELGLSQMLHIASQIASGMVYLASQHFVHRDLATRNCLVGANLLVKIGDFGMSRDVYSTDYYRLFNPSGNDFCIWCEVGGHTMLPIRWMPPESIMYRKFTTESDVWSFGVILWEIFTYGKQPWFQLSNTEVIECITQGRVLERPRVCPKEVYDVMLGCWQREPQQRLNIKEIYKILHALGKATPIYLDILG

[20] = biological target: Dual specificity protein kinase CLK1 (Homo sapiens) (UniProt P49759); assay: Inhibition of wild-type human full length CLK1 (M1 to I484 residues) expressed in bacterial expression system assessed as residual activity at 1 uM by Kinomescan method relative to control
[21] = biological target: Tyrosine-protein kinase HCK (Homo sapiens) (UniProt P08631); assay: Inhibition of wild-type human full length HCK (M22 to P526 residues) expressed in bacterial expression system assessed as residual activity at 1 uM by Kinomescan method relative to control
Tyrosine-protein kinase HCK (Homo sapiens), sequence (P08631 2-526 limits assumed): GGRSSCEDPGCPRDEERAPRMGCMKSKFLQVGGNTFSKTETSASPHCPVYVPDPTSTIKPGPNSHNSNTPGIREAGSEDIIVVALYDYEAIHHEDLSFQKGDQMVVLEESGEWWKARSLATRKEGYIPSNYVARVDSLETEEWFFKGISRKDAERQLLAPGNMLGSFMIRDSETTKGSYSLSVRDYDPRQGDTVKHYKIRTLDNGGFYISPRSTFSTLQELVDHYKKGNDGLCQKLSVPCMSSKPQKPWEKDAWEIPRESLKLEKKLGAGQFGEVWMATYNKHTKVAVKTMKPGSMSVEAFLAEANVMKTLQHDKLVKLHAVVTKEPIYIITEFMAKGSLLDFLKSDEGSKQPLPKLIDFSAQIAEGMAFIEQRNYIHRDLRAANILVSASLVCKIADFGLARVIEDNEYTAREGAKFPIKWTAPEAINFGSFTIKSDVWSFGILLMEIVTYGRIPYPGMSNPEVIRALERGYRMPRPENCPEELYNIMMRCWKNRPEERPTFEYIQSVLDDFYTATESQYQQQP

[22] = biological target: Tyrosine-protein kinase Fyn (Homo sapiens) (UniProt P06241); assay: Inhibition of wild-type human partial length FYN (T243 to L534 residues) expressed in bacterial expression system assessed as residual activity at 1 uM by Kinomescan method relative to control
Tyrosine-protein kinase Fyn (Homo sapiens), sequence (P06241 2-537 limits assumed): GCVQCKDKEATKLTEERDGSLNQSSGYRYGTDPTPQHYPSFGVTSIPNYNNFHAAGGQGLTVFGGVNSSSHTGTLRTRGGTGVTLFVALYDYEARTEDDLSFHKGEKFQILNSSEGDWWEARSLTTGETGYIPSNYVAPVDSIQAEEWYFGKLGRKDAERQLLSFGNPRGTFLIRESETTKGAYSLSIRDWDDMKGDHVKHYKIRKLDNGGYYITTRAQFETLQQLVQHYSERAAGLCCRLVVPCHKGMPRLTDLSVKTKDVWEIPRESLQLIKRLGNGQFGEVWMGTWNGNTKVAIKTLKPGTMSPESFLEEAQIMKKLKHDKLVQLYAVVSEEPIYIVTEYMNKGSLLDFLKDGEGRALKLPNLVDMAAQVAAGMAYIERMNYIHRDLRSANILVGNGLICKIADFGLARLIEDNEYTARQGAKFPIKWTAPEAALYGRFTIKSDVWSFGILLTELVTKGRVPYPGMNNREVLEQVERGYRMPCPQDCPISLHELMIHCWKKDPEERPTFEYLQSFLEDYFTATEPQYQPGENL

[23] = biological target: Serine/threonine-protein kinase Chk2 (Homo sapiens) (UniProt O96017); assay: Inhibition of CHK2 (unknown origin) assessed as residual activity at 1 uM by Kinomescan method relative to control
Serine/threonine-protein kinase Chk2 (Homo sapiens), sequence (O96017 whole entry, the tested form may be a part): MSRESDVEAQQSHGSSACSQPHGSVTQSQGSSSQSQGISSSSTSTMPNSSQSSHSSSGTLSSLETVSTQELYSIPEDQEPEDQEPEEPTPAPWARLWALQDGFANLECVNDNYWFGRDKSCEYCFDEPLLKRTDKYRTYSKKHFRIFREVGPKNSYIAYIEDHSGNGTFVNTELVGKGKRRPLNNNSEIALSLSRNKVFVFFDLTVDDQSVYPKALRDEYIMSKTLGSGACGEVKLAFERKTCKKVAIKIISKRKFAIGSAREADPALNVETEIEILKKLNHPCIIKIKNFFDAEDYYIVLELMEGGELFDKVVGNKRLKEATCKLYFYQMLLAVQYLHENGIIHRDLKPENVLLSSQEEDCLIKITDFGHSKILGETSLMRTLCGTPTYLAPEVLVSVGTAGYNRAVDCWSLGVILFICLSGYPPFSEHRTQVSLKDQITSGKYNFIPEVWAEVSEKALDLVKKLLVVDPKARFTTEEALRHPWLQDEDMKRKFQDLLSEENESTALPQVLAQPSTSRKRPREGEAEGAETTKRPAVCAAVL

[24] = biological target: Serine/threonine-protein kinase Nek3 (Homo sapiens) (UniProt P51956); assay: Inhibition of wild-type human full length NEK3 (M1 to R506 residues) expressed in mammalian expression system assessed as residual activity at 1 uM by Kinomescan method relative to control
[25] = biological target: Serine/threonine-protein kinase 32B (Homo sapiens) (UniProt Q9NY57); assay: Inhibition of wild-type human full length YANK2 (M1 to S414 residues) expressed in bacterial expression system assessed as residual activity at 1 uM by Kinomescan method relative to control
[26] = In vivo inhibition of LRRK2 in Han-Wistar rat assessed as reduction in Ser935 phosphorylation in brain at 10 mg/kg, po by Western blot analysis; format: functional; set-up: scale not given: the % may be the effect or the level left
[27] = biological target: Serine/threonine-protein kinase VRK2 (Homo sapiens) (UniProt Q86Y07); assay: Inhibition of wild-type human partial length VRK2 (M1 to T336 residues) expressed in mammalian expression system assessed as residual activity at 1 uM by Kinomescan method relative to control

cAMP-dependent protein kinase catalytic subunit gamma (Homo sapiens), sequence (P22612 2-351 limits assumed): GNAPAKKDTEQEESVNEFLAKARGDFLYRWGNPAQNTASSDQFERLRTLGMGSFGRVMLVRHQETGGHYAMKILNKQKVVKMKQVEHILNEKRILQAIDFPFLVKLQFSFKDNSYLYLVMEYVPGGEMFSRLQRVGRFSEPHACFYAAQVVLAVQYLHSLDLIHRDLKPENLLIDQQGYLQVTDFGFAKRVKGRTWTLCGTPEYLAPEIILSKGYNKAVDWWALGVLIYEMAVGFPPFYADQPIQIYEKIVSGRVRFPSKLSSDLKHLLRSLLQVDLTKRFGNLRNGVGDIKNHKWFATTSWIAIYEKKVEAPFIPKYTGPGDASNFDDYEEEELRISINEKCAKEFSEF

## CCOc1nc(Nc2ccc(C(=O)N3CCOCC3)cc2OC)nc2[nH]ccc12
[1]
  Activity: 110%
Homo sapiens
  Activity: 91.6%
[2]
  Activity: 0.91%
[3]
  Activity: 97.9%
[4]
  CLH: 1.1 mL/min/g
[5]
  Activity: 97.2%
[6]
  Activity: 96.6%
[7]
  Activity: 99.2%
[8]
  Activity: 94.4%
[9]
  Activity: 98.5%
[10]
  Activity: 100%
[11]
  Activity: 95.3%
[12]
  Activity: 99.7%
[13]
  Activity: 93.5%
[14]
  Activity: 63.1%
[15]
  Activity: 101%
[16]
  Activity: 96.5%
[17]
  Activity: 62.1%
[18]
  Activity: 50%
[19]
  Activity: 97.7%
[20]
  Activity: 37.4%
[21]
  Activity: 87.2%
[22]
  Activity: 109%
[23]
  Activity: 16.8%
[24]
  Activity: 104%
[25]
  Activity: 100%
[26]
  Activity: 20%
[27]
  Activity: 102%
